From the NIST ThermoML archive (doi:10.1016/j.jct.2008.07.024)
Several values for one entry are separate records, joined by “and”; a condition that tells them apart may be missing. Equal entries are not always repeated. Numbers after ± are expanded uncertainties.

Settings: Liquid, Closed cell (Static) method

Structure (SMILES)	vapor or sublimation pressure (303.15 K) [kPa]	vapor or sublimation pressure (313.15 K)	vapor or sublimation pressure (323.15 K)
CCCCCC [hexane]	25.16 ± 0.05	37.42 ± 0.07 kPa	54.11 ± 0.1 kPa
CCCOCCO [2-propoxyethanol]	0.45 ± 0.02	0.87 ± 0.02 kPa and 0.89 ± 0.02 kPa	1.59 ± 0.02 kPa and 1.61 ± 0.02 kPa
CCCCCCC [heptane]	7.92 ± 0.03	12.24 ± 0.03 kPa	18.91 ± 0.04 kPa
